{
  "source": "patent US20170107207A1",
  "about": "“AMINOPYRAZOLONE DERIVATIVE” (DAIICHI SANKYO COMPANY, LIMITED, priority 2014, published 2017)",
  "key": {"[1]": {"tested_on": "Lymphoma cell line RAMOS cells", "assay": "Antitumor test, mouse subcutaneous transplantation model, RAMOS", "type": "in vivo", "details": "RAMOS in SCID mice, 4 consecutive days, tumor measured next day", "from_the_text": "(§1) In vivo test of test compound: Antitumor test using mouse subcutaneous transplantation model\nLymphoma cell line RAMOS cells were suspended in a culture flask and then centrifuged to remove a supernatant. The cells were washed with PBS (phosphate buffered saline, Life Technologies Corp.) twice and then suspended in PBS. The cell suspension was subcutaneously transplanted at a dose of 1×10^7 cells/mouse to the right axillary regions of 6-week-old SCID mice (FOX CHASE SCID C.B.17/Icr-scid/scidJcl, CLEA Japan, Inc.). The test was conducted by using cancer-bearing mice having an estimated tumor volume (major axis×minor axis×minor axis/2) of 200 to 350 mm3 and grouping the cancer-bearing mice without significant difference in average estimated tumor volume from a negative control group. The compound of Example 113 was suspended in a solvent (EtOH/DMA/Solutol HS-15/PEG400/5% HMPC). The suspension was orally administered to each mouse twice a day (BID) at a dose of 25, 50, 100, or 200 mg/kg for 4 consecutive days. On the next day, the tumor sizes were measured.\nThe rate of tumor growth inhibition was also calculated in this test according to the following expression and is shown in a table.\nRate of tumor growth inhibition (%)=100−(Average value of the tumor volumes of the test compound administration group)/(Average value of the tumor volumes of the vehicle administration group)×100."}, "[2]": {"tested_on": "Liver cancer cell line HUH-7 cells", "assay": "Antitumor test, mouse subcutaneous transplantation model, HUH-7", "type": "in vivo", "details": "HUH-7 in nude mice, 4 consecutive days, tumor measured three days after final administration", "from_the_text": "as §1\nLiver cancer cell line HUH-7 cells were dissociated from a culture flask by trypsin treatment, then suspended in an RPMI1640 medium containing 10% FBS, and then centrifuged to remove the supernatant. The cells were washed with PBS twice and then suspended in BD Matrigel Basement Membrane Matrix (manufactured by BD Biosciences). The cell suspension was subcutaneously transplanted at a dose of 5×10^6 cells/mouse to the right axillary regions of 6-week-old nude mice (CAnN.Cg-Foxn1[nu]/CrlCrlj[Foxn1nu/Foxn1nu], Charles River Laboratories Japan, Inc.). The test was conducted by using cancer-bearing mice having an estimated tumor volume (major axis×minor axis×minor axis/2) of 70 to 180 mm3 and grouping the cancer-bearing mice without significant difference in average estimated tumor volume from a negative control group. The compound of Example 113 was suspended in solvent (EtOH/DMA/Solutol HS-15/PEG400/5% HMPC). The suspension was orally administered to each mouse twice a day (BID) at a dose of 75 or 150 mg/kg for 4 consecutive days. Three days after the final administration date, the tumor sizes were measured.\nThe rate of tumor growth inhibition was also calculated in this test according to the following expression and is shown in a table. […]"}, "[3]": {"tested_on": "human lymphoma cell line RAMOS cells", "assay": "Cell growth inhibition test using RAMOS cell, MTT assay", "type": "cell-based", "details": "50% growth inhibition concentration", "summary_of_the_method": "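Cells in RPMI1640 with 10% FBS were exposed to compound (DMSO ≤1%) for 3 days at 37° C, 5% CO2. Viability was read by MTT (4 h, formazan in DMSO, OD 540/660 nm) against a day-0 plate; GI50 was interpolated from T/C % growth rates.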"}},
  "data": [
    {"smiles": "CCOc1cc(F)c(Cl)cc1C(=O)NCC(C)(C)CC(=O)Nc1c(COC)n(C)n(-c2ccccc2)c1=O", "note": "[Example 113, 5-Chloro-2-ethoxy-4-fluoro-N-(4-{[5-(methoxymethyl)-1-methyl-3-oxo-2-phenyl-2,3-dihydro-1H-pyrazol-4-yl]amino}-2,2-dimethyl-4-oxobutyl)benzamide]", "values": [
      {"measurement": "Rate of tumor growth inhibition (%)", "setting": "[1]; 25 mg/kg orally BID", "result": 35, "unit": "%"},
      {"measurement": "Rate of tumor growth inhibition (%)", "setting": "[1]; 50 mg/kg orally BID", "result": 56, "unit": "%"},
      {"measurement": "Rate of tumor growth inhibition (%)", "setting": "[1]; 100 mg/kg orally BID", "result": 72, "unit": "%"},
      {"measurement": "Rate of tumor growth inhibition (%)", "setting": "[1]; 200 mg/kg orally BID", "result": 75, "unit": "%"},
      {"measurement": "Rate of tumor growth inhibition (%)", "setting": "[2]; 75 mg/kg orally BID", "result": 46, "unit": "%"},
      {"measurement": "Rate of tumor growth inhibition (%)", "setting": "[2]; 150 mg/kg orally BID", "result": 63, "unit": "%"},
      {"measurement": "GI50", "setting": "[3]", "result": 0.047, "unit": "µM"}
    ]}
  ]
}
